Article PMC10950498, “Ligands of HMG-like dorsal switch protein 1 of Spodoptera exigua leads to mortality in diamondback moth, Plutellaxylostella” (Heliyon, 2024)

Target: T1, HMG-like dorsal switch protein 1 (rSe-DSP1)
T1 construct: recombinant DSP1 protein (rSe-DSP1)
Assay: thermal shift assay with fitted Kd
Format: binding, Spodoptera exigua

Row | Structure (SMILES) | Kd
1 | N#Cc1ccccc1C(=O)O [CBA, o-Cyanobenzoic acid] | 246 µM
2 | CCOc1cc(O)ccc1OC [EMP, 3-Ethoxy-4-Methoxyphenol] | 148 µM
3 | O=C1NC(=O)c2ccccc21 [PM, Phthalimide] | 197 µM
